Reference: US9211292B2, “Preventing or reducing drug abuse and overdose events” (ALITAIR PHARMACEUTICALS INC, priority 2011, dated 2015)

Assay: Dissolution testing, simulated empty stomach (USP 31 NF26 Apparatus 2, 0.1N HCl)
Assay type: physicochemical
Settings: for HCBT Released / HCBT Released, Percent of Original Dose: 80 mg dose, 0.1N HCl 250 ml 37° C.
Protocol: The resinate or pure HCBT was weighed to determine the dose to be tested. The resinate or pure HCBT powder was added directly to the vessel for dissolution testing without the use of a capsule or tablet and its associated excipients. The conditions in the first stage to simulate dissolution in an empty stomach were as follows:
The above resinate of the invention having an 11.5% HCBT loading was tested at dosages of 10 mg, 40 mg and 80 mg HCBT. The resinate of the invention having 60.7% HCBT loading was tested at dosages of 10 and 80 mg HCBT. […] A given dose was placed in the dissolution apparatus and stirred for a given length of time. At the end of that time, the quantity of HCBT released was determined by high pressure liquid chromatography.

COc1ccc2c3c1O[C@H]1C(=O)CC[C@H]4[C@@H](C2)N(C)CC[C@]314 [Pure HCBT, Hydrocodone bitartrate]
drug released (FIG. 1) (80 mg dosage in powder form, simulated empty stomach): released essentially all of the drug | HCBT Released (15 min): 78.8 mg | HCBT Released, Percent of Original Dose (15 min): 98.6% of Original Dose | HCBT Released (30 min): 79.2 mg | HCBT Released, Percent of Original Dose (30 min): 99.0% of Original Dose | HCBT Released (45 min): 79.4 mg | HCBT Released, Percent of Original Dose (45 min): 99.2% of Original Dose | HCBT Released (60 min): 79.6 mg | HCBT Released, Percent of Original Dose (60 min): 99.5% of Original Dose
